Laboratory results: patent US20040097596A1 (priority 2000, published 2004)
Like-named read-outs stand apart in the source and are kept apart here.

System: Phytophthora infestans
Assay type: in vivo
Conditions: for E, Expected % disease control / O, Observed % disease control / O-E: A76 potato
[1] = 3 ppm, Jan. 25, 2001, FB 2001/3001
[2] = 3 ppm, Jan. 26, 2001, FB 2001/3001
[3] = 3 ppm, Jan. 27, 2001, FB 2001/3001
[4] = 3 ppm, Jan. 28, 2001, FB 2001/3001
[5] = 3 ppm, Jan. 29, 2001, FB 2001/3001
[6] = 3 ppm, Oct. 13, 2000, FB 2000/3024
[7] = 3 ppm, Oct. 16, 2000, FB 2000/3024
[8] = 3 ppm, Oct. 18, 2000, FB 2000/3024
[9] = 3 ppm, Oct. 20, 2000, FB 2000/3024
[10] = 10 ppm, Jan. 25, 2001, FB 2001/3001
[11] = 10 ppm, Jan. 26, 2001, FB 2001/3001
[12] = 10 ppm, Jan. 27, 2001, FB 2001/3001
[13] = 10 ppm, Jan. 28, 2001, FB 2001/3001
[14] = 10 ppm, Jan. 29, 2001, FB 2001/3001
[15] = 10 ppm, Oct. 13, 2000, FB 2000/3024
[16] = 10 ppm, Oct. 16, 2000, FB 2000/3024
[17] = 10 ppm, Oct. 18, 2000, FB 2000/3024
[18] = 10 ppm, Oct. 20, 2000, FB 2000/3024
[19] = 30 ppm, Oct. 13, 2000, FB 2000/3024
[20] = 30 ppm, Oct. 16, 2000, FB 2000/3024
[21] = 30 ppm, Oct. 18, 2000, FB 2000/3024
[22] = 30 ppm, Oct. 20, 2000, FB 2000/3024

Structure (SMILES): COCC(=O)N(c1c(C)cccc1C)C(C)C(=O)OC (stereo not shown) [Metalaxyl, metalaxyl]
- E, Expected % disease control [1]: 88.8%
- O, Observed % disease control [1]: 91.7%
- O-E [1]: 2.8
- E, Expected % disease control [2]: 92.6%
- O, Observed % disease control [2]: 94.9%
- O-E [2]: 2.3
- E, Expected % disease control [3]: 87.2%
- O, Observed % disease control [3]: 93.8%
- O-E [3]: 6.5
- E, Expected % disease control [4]: 57.9%
- O, Observed % disease control [4]: 91.9%
- O-E [4]: 34.1
- E, Expected % disease control [5]: 38.1%
- O, Observed % disease control [5]: 89.9%
- O-E [5]: 51.8
- E, Expected % disease control [6]: 79.35%
- O, Observed % disease control [6]: 94.37%
- O-E [6]: 15.02
- E, Expected % disease control [7]: 71.31%
- O, Observed % disease control [7]: 97.68%
- O-E [7]: 26.37
- E, Expected % disease control [8]: 58.26%
- O, Observed % disease control [8]: 97.95%
- O-E [8]: 39.69
- E, Expected % disease control [9]: 42.01%
- O, Observed % disease control [9]: 95.95%
- O-E [9]: 53.94
- E, Expected % disease control [10]: 98.3%
- O, Observed % disease control [10]: 97.2%
- O-E [10]: 3.9
- E, Expected % disease control [11]: 96.2%
- O, Observed % disease control [11]: 98.7%
- O-E [11]: 2.5
- E, Expected % disease control [12]: 94.2%
- O, Observed % disease control [12]: 99.0%
- O-E [12]: 4.8
- E, Expected % disease control [13]: 80.4%
- O, Observed % disease control [13]: 98.0%
- O-E [13]: 17.6
- E, Expected % disease control [14]: 55.4%
- O, Observed % disease control [14]: 97.0%
- O-E [14]: 41.6
- E, Expected % disease control [15]: 88.74%
- O, Observed % disease control [15]: 94.37%
- O-E [15]: 5.63
- E, Expected % disease control [16]: 87.84%
- O, Observed % disease control [16]: 96.6%
- O-E [16]: 8.76
- E, Expected % disease control [17]: 75.07%
- O, Observed % disease control [17]: 97.95%
- O-E [17]: 22.88
- E, Expected % disease control [18]: 48.83%
- O, Observed % disease control [18]: 96.96%
- O-E [18]: 48.13
- E, Expected % disease control [19]: 96.25%
- O, Observed % disease control [19]: 100%
- O-E [19]: 3.75
- E, Expected % disease control [20]: 97.08%
- O, Observed % disease control [20]: 100%
- O-E [20]: 2.92
- E, Expected % disease control [21]: 94.58%
- O, Observed % disease control [21]: 97.95%
- O-E [21]: 3.37
- E, Expected % disease control [22]: 89.77%
- O, Observed % disease control [22]: 97.97%
- O-E [22]: 8.2
- performance in combination with A76 (indicative of synergy) (in combination with A76 potato, observed vs expected disease control): better than expected
